Values quoted from earlier work as cited in patent US20240401031A1, “Platform Using iPSC-Derived Cardiomyocytes Carrying Gene Variants as Models of Cardiac Disease and Drug-Response” (SRI INTERNATIONAL, priority 2021, published 2024).

Conditions: source CredibleMeds

Structure (SMILES) | Risk (Torsade de Pointes)
COc1c(N2CCNC(C)C2)c(F)cc2c(=O)c(C(=O)O)cn(C3CC3)c12 (stereo not drawn) [Gatifloxacin] | (KR)
CCc1nc(C(N)=O)c(Nc2ccc(N3CCC(N4CCN(C)CC4)CC3)c(OC)c2)nc1NC1CCOCC1 [Gilteritinib] | (PR)
CN1CC[C@@H](NC(=O)Nc2ccc(C#N)cc2)C[C@@H]1c1nc2ccccc2[nH]1 [Glasdegib] | (PR)
CN1C2CCCC1CC(NC(=O)c1nn(C)c3ccccc13)C2 (stereo not drawn) [Granisetron] | (PR)
NS(=O)(=O)c1cc2c(cc1Cl)NCNS2(=O)=O [Hydrochlorothiazide] | (CR)
CC[C@H]1CN2CC[C@H]1C[C@@H]2[C@@H](O)c1ccnc2ccc(OC)cc12 [Hydroquinidine] | (KR)
CCN(CCO)CCCC(C)Nc1ccnc2cc(Cl)ccc12 (stereo not drawn) [Hydroxychloroquine] | (KR)
OCCOCCN1CCN(C(c2ccccc2)c2ccc(Cl)cc2)CC1 (stereo not drawn) [Hydroxyzine] | (CR)
CCCCCCCN(CC)CCCC(O)c1ccc(NS(C)(=O)=O)cc1 (stereo not drawn) [Ibutilide] | (KR)
COc1cc(C(C)=O)ccc1OCCCN1CCC(c2noc3cc(F)ccc23)CC1 [Iloperidone] | (PR)
CN(C)CCCN1c2ccccc2CCc2ccccc21 [Imipramine] | (PR)
CCc1cc2c(cc1CC)CC(NC[C@H](O)c1ccc(O)c3[nH]c(=O)ccc13)C2 [Indacaterol] | (SR)
CC1Cc2ccccc2N1NC(=O)c1ccc(Cl)c(S(N)(=O)=O)c1 (stereo not drawn) [Indapamide] | (CR)
CC(C)NCC(O)c1ccc(O)c(O)c1 (stereo not drawn) [Isoproterenol] | (SR)
COC(=O)C1=C(C)NC(C)=C(C(=O)OC(C)C)C1c1cccc2nonc12 (stereo not drawn) [Isradipine] | (PR)
CCC(C)n1ncn(-c2ccc(N3CCN(c4ccc(OCC5COC(Cn6cncn6)(c6ccc(Cl)cc6Cl)O5)cc4)CC3)cc2)c1=O (stereo not drawn) [Itraconazole] | (CR)
COc1cc2c(cc1OC)CC(=O)N(CCCN(C)C[C@H]1Cc3cc(OC)c(OC)cc31)CC2 [Ivabradine] | (CR)
N#Cc1ccnc(N2C(=O)CC[C@H]2C(=O)N(c2cncc(F)c2)[C@H](C(=O)NC2CC(F)(F)C2)c2ccccc2Cl)c1 [Ivosidenib] | (PR)
O=C(c1ccc(F)cc1)C1CCN(CCn2c(=O)[nH]c3ccccc3c2=O)CC1 [Ketanserin] | (PR)
CC(=O)N1CCN(c2ccc(OCC3COC(Cn4ccnc4)(c4ccc(Cl)cc4Cl)O3)cc2)CC1 (stereo not drawn) [Ketoconazole] | (CR)
CCOC(=O)C1=C(C)NC(C)=C(C(=O)OCC)C1c1ccccc1/C=C/C(=O)OC(C)(C)C [Lacidipine] | (PR)

Structure (SMILES) | Risk (Torsade de Pointes)
Cc1c(OCC(F)(F)F)ccnc1C[S+]([O-])c1nc2ccccc2[nH]1 (stereo not drawn) [Lansoprazole] | (CR)
CS(=O)(=O)CCNCc1ccc(-c2ccc3ncnc(Nc4ccc(OCc5cccc(F)c5)c(Cl)c4)c3c2)o1 [Lapatinib] | (PR)
C=C[C@]1(C)C[C@@H](OC(=O)CS[C@@H]2CC[C@@H](N)C[C@H]2O)[C@]2(C)[C@H](C)CC[C@]3(CCC(=O)[C@H]32)[C@@H](C)[C@@H]1O [Lefamulin] | (PR)
CC[C@@H](C(N)=O)N1CCCC1=O [Levetiracetam] | (PR)
COc1ccc2c(c1)N(C[C@H](C)CN(C)C)c1ccccc1S2 [Levomepromazine] | (KR)
CCC(=O)C(C[C@@H](C)N(C)C)(c1ccccc1)c1ccccc1 [Levomethadone] | (PR)
CC[C@H](O)C(C[C@H](C)N(C)C)(c1ccccc1)c1ccccc1 [Levomethadyl] | (KR)
CN[C@H](C)Cc1ccccc1 [Levomethamphetamine] | (SR)
CCN1CCC[C@H]1CNC(=O)c1cc(S(N)(=O)=O)ccc1OC [Levosulpiride] | (KR)
CC(=O)NC[C@H]1CN(c2ccc(N3CCOCC3)c(F)c2)C(=O)O1 [Linezolid] | (PR)
C[C@@H](Cc1ccccc1)NC(=O)[C@@H](N)CCCCN [Lisdexamfetamine] | (SR)
[Li] [Lithium] | (PR)
CC(Oc1c(Cl)cccc1Cl)C1=NCCN1 (stereo not drawn) [Lofexidine] | (PR)
O=C1[C@@H]2[C@H]3CC[C@H](C3)[C@@H]2C(=O)N1C[C@@H]1CCCC[C@H]1CN1CCN(c2nsc3ccccc23)CC1 [Lurasidone] | (PR)
CNCCCC12CCC(c3ccccc31)c1ccccc12 [Maprotiline] | (PR)
CN1CCCCC1CCN1c2ccccc2Sc2ccc([S+](C)[O-])cc21 (stereo not drawn) [Mesoridazine] | (KR)
CCC(=O)C(CC(C)N(C)C)(c1ccccc1)c1ccccc1 (stereo not drawn) [Methadone] | (KR)
CN[C@@H](C)Cc1ccccc1 [Methamphetamine] | (SR)
CCN(CC)CCNC(=O)c1cc(Cl)c(N)cc1OC [Metoclopramide] | (CR)
Cc1ccccc1N1C(=O)c2cc(S(N)(=O)=O)c(Cl)cc2NC1C (stereo not drawn) [Metolazone] | (CR)
CN1CCN2c3ccccc3Cc3ccccc3C2C1 (stereo not drawn) [Mianserin] | (PR)

Structure (SMILES) | Risk (Torsade de Pointes)
COc1ccc(OC)c(C(O)CNC(=O)CN)c1 (stereo not drawn) [Midodrine] | (SR)
CO[C@@H]1[C@H](N(C)C(=O)c2ccccc2)C[C@H]2O[C@]1(C)n1c3ccccc3c3c4c(c5c6ccccc6n2c5c31)C(=O)NC4 [Midostaurin] | (PR)
Nc1nc(CC(=O)Nc2ccc(CCNC[C@H](O)c3ccccc3)cc2)cs1 [Mirabegron] | (PR)
Cc1c(O)cccc1C(=O)N[C@@H](CSc1ccccc1)[C@H](O)CN1C[C@H]2CCCC[C@H]2C[C@H]1C(=O)NC(C)(C)C [Nelfinavir] | (CR)
CCn1cc(C(=O)O)c(=O)c2cc(F)c(N3CCNCC3)cc21 [Norfloxacin] | (PR)
CNCCC=C1c2ccccc2CCc2ccccc21 [Nortriptyline] | (PR)
COc1ccsc1CNCC[C@@]1(c2ccccn2)CCOC2(CCCC2)C1 [Oliceridine] | (PR)
COc1ccc(CC(C)(C)NC[C@H](O)c2cc(O)cc3c2OCC(=O)N3)cc1 [Olodaterol] | (SR)
COc1ccc2[nH]c([S+]([O-])Cc3ncc(C)c(OC)c3C)nc2c1 (stereo not drawn) [Omeprazole] | (CR)
Cc1nccn1CC1CCc2c(c3ccccc3n2C)C1=O (stereo not drawn) [Ondansetron] | (KR)
O=C1[O][Pt]2([NH][C@@H]3CCCC[C@H]3[NH]2)[O]C1=O [Oxaliplatin] | (KR)
Cc1cc(C(C)(C)C)c(O)c(C)c1CC1=NCCN1 [Oxymetazoline] | (SR)
CC(C)Oc1ccc(-c2nc(-c3cccc4c3CC[C@@H]4NCCO)no2)cc1C#N [Ozanimod] | (PR)
Cc1nc2n(c(=O)c1CCN1CCC(c3noc4cc(F)ccc34)CC1)CCCC2O (stereo not drawn) [Paliperidone] | (PR)
O=C1c2cccc3c2[C@H](CCC3)CN1[C@@H]1CN2CCC1CC2 [Palonosetron] | (PR)
Cc1[nH]c2ccccc2c1CCNCc1ccc(/C=C/C(=O)NO)cc1 [Panobinostat] | (PR)
COc1ccnc(C[S+]([O-])c2nc3ccc(OC(F)F)cc3[nH]2)c1OC (stereo not drawn) [Pantoprazole] | (CR)
COc1ccc(Cc2nccc3cc(OC)c(OC)cc23)cc1OC [Papaverine] | (KR)
Fc1ccc([C@@H]2CCNC[C@H]2COc2ccc3c(c2)OCO3)cc1 [Paroxetine] | (CR)
Cc1ccc(Nc2nccc(N(C)c3ccc4c(C)n(C)nc4c3)n2)cc1S(N)(=O)=O [Pazopanib] | (PR)
N=C(N)c1ccc(OCCCCCOc2ccc(C(=N)N)cc2)cc1 [Pentamidine] | (KR)

Structure (SMILES) | Risk (Torsade de Pointes)
FC(F)(F)C(F)(F)C(F)(F)F [Perflutren] | (PR)
CC(C)(N)Cc1ccccc1 [Phentermine] | (SR)
CNC[C@H](O)c1cccc(O)c1 [Phenylephrine] | (SR)
CC(N)C(O)c1ccccc1 (stereo not drawn) [Phenylpropanolamine] | (SR)
Cc1cccc(C)c1NC(=O)CC12CCCN1CCC2 [Pilsicainide] | (PR)
CC(C)COc1ccc(CNC(=O)N(Cc2ccc(F)cc2)C2CCN(C)CC2)cc1 [Pimavanserin] | (PR)
O=c1[nH]c2ccccc2n1C1CCN(CCCC(c2ccc(F)cc2)c2ccc(F)cc2)CC1 [Pimozide] | (KR)
NC(=O)C1(N2CCCCC2)CCN(CCCC(=O)c2ccc(F)cc2)CC1 [Pipamperone] | (PR)
Clc1ccc(CCCOCCCN2CCCCC2)cc1 [Pitolisant] | (PR)
CCC/N=C1\S/C(=C\c2ccc(OC[C@H](O)CO)c(Cl)c2)C(=O)N1c1ccccc1C [Ponesimod] | (PR)
CC[C@@H]([C@H](C)O)n1ncn(-c2ccc(N3CCN(c4ccc(OC[C@@H]5CO[C@@](Cn6cncn6)(c6ccc(F)cc6F)C5)cc4)CC3)cc2)c1=O [Posaconazole] | (CR)
O=[N+]([O-])c1cn2c(n1)OC[C@@H](OCc1ccc(OC(F)(F)F)cc1)C2 [Pretomanid] | (PR)
COc1cc(NC(C)CCCN)c2ncccc2c1 (stereo not drawn) [Primaquine] | (PR)
CC(CN1c2ccccc2Sc2ccccc21)N(C)C (stereo not drawn) [Promethazine] | (PR)
CN(C)CCCN1c2ccccc2Sc2cccnc21 [Prothipendyl] | (PR)
OCCOCCN1CCN(C2=Nc3ccccc3Sc3ccccc32)CC1 [Quetiapine] | (CR)
C=C[C@H]1C[N@@]2CC[C@H]1C[C@@H]2[C@@H](O)c1ccnc2ccc(OC)cc12 [Quinidine] | (KR)
C=C[C@H]1C[N@@]2CC[C@H]1C[C@H]2[C@H](O)c1ccnc2ccc(OC)cc12 [Quinine] | (CR)
